For series [1], the system named is mice. Conditions: up to 30 mg/kg; cited from earlier work.
Series [2] has as its target T1, intact retromer complex (Homo sapiens, UniProt Q96QK1+Q9UBQ0).
T1 construct: made in house
Nature of the series: fluorescence thermal stability assay with reconstituted retromer. The class given is binding. The source says:
We set out to screen and identify compounds that stabilized the active retromer complex, thereby preventing VPS35 degradation and increasing the steady-state level of the complex, which may reduce toxic Abeta. To cast our net wider, we set out to perform virtual screening by docking first, and we were able to do that because crystal structures of several retromer components and, more importantly, the VPS35-VPS29 binary complex, had been published. […] After two years of trial and error in overcoming technical obstacles, we finally succeeded in expressing and purifying each of the individual retromer components separately, and then reconstituting the complete complex in vitro.
We then obtained tested, in a real fluorescence stability assay using our reconstituted retromer, a total of about 50 compounds from our list of the 200 “top hits” in the docking run. It should be noted that there are a total of 7 sites that were identified from the computational surface mapping approach, and we considered anything with a G-score below −7.00 to be in the “top hits”. Four of the sites contained almost all the top hits, so compounds were actually assayed only if they were in the top 200 by G-score and were predicted to bind well to one of these four sites.

The test system of series [3] is animal models for cancer. Conditions: three different animal models for cancer; cited from earlier work.

Each structure is given as a SMILES string.

For the compound `N=C(N)SCc1ccc(CSC(=N)N)s1` [compound 55712, [5-(carbamimidoylsulfanylmethyl)thiophen-2-yl]methyl carbamimidothioate], the toxicity to mice result in series [1] is “not toxic”. Further, in series [2] (compounds from top docking hits of site 2 (VPS35-VPS29 interface)), the “hit in actual experimental assays” value is recorded as “positive hits”. In series [2] (increase in thermal stability, reconstituted retromer, FIG. 1), the “stabilization of the intact retromer complex (thermal stability)” value was determined as 10 degrees Celsius. Besides, the antitumor activity result in series [3] was “no antitumor activity”.

The record behind these values is US20150361063A1, “TREATMENT OF AMYLOIDOSIS BY COMPOUNDS THAT REGULATE RETROMER STABILIZATION” (Brandeis University, priority 2011, published 2015).
